Results taken from ChEMBL document CHEMBL1140491, “Amino-caprolactam derivatives as gamma-secretase inhibitors” (Bioorg Med Chem Lett, 2007).

Assays:
[1] = Ratio of drug level in brain to plasma in Tg2576 mouse at 200 mg/kg, po after 3 hrs
[2] = Drug level in Tg2576 mouse plasma at 200 µmol/kg, po after 3 hrs
[3] = Drug level in Tg2576 mouse brain at 200 µmol/kg, po after 3 hrs; conditions: read-out: Drug uptake

SMILES	Kp at 3 h [1]	concentration at 3 h [2] [nM]	concentration at 3 h [3] [nM]
COc1ccc(CN([C@@H]2CCCCNC2=O)S(=O)(=O)c2ccc(Cl)cc2)cc1	7	280	2200
CN(C)c1ccc(CN([C@@H]2CCCCNC2=O)S(=O)(=O)c2ccc(Cl)cc2)cc1	2.8	1600	4200
